Measurements from US20170253601A1, “Substituted Pyrrolidine Compounds” (EPIZYME, INC., priority 2014, published 2017).

Molecular target: T1, SMYD2 (Homo sapiens, UniProt Q9NRG4)
T1 construct: Full length SMYD2 (NP 064582.2) was cloned; His6 (N, cleaved yes); FLAG (N); made in house; host or cells: Sf9 insect cells
Experiment: SMYD2 Biochemical Assay (3H-SAM, biotinylated peptide substrate, Flashplate)
Settings: IC50 values are an average of n = 1 to n = 50; read-out: SMYD2 Biochem IC50 (μM)*
Text: S-adenosylmethionine (SAM), S-adenosylhomocysteine (SAH), bicine, Tween20, dimethylsulfoxide (DMSO), bovine skin gelatin (BSG), and Tris(2-carboxyethyl)phosphine hydrochloride (TCEP) were purchased from Sigma-Aldrich at the highest level of purity possible. ^3H-SAM was purchase from American Radiolabeled Chemicals with a specific activity of 80 Ci/mmol. 384-well streptavidin Flashplates were purchased from PerkinElmer.
Peptide was synthesized with a N-terminal linker-affinity tag motif and a C-terminal amide cap by 21st Century Biochemicals. The peptide was high-performance liquid chromatography (HPLC) purified to greater than 95% purity and confirmed by liquid chromatography mass spectrometry (LC-MS). The sequence was […](K-Biot)-amide. (SEQ ID No: 3)
Full length SMYD2 (NP 064582.2) was cloned into a pFastbac-Htb-lic vector with an N-terminal His6 tag and FLAG tag, preceded by a TEV protease cleavage site. The protein was expressed in Sf9 insect cells. Cells were resuspended in lysis buffer (25 mM HEPES-NaOH, pH 7.5, 200 mM NaCl, 5% glycerol, and 5 mM β-ME) and lysed by sonication. The protein was purified by Ni-NTA (Qiagen), followed by TEV cleavage to remove the His6 tag, subtractive Ni-NTA (Qiagen), and gel filtration chromatography using an […] (GE Healthcare). Purified protein was stored in 20 mM Tris-HCl, pH 8.0, 100 mM NaCl, and 1 mM TCEP.
The assays were all performed in a buffer consisting of 20 mM Bicine (pH=7.6), 1 mM TCEP, 0.005% Bovine Skin Gelatin, and 0.002% Tween20, prepared on the day of use. Compounds in 100% DMSO (1 ul) were spotted into a polypropylene 384-well V-bottom plates (Greiner) using a Platemate Plus outfitted with a 384-channel head (Thermo Scientific). DMSO (1 ul) was added to Columns 11, 12, 23, 24, rows A-H for the maximum signal control and 1 ul of SAH, a known product and inhibitor of SMYD2, was added to columns 11, 12, 23, 24, rows I-P for the minimum signal control. A cocktail (40 ul) containing the SMYD2 enzyme was added by Multidrop Combi (Thermo-Fisher). The compounds were allowed to incubate with SMYD2 for 30 min at room temperature, then a cocktail (10 ul) containing ^3H-SAM and peptide was added to initiate the reaction (final volume=51 ul). The final concentrations of the components were as follows: SMYD2 was 1.5 nM, ^3H-SAM was 10 nM, and peptide was 60 nM, SAH in the minimum signal control wells was 1000 uM, and the DMSO concentration was 2%. The assays were stopped by the addition of non-radioactive SAM (10 ul) to a final concentration of 600 uM, which dilutes the ^3H-SAM to a level where its incorporation into the peptide substrate is no longer detectable. 50 ul of the reaction in the 384-well polypropylene plate was then transferred to a 384-well Flashplate and the biotinylated peptides were allowed to bind to the streptavidin surface for at least 1 hour before being washed three times with 0.1% Tween20 in a Biotek ELx405 plate washer. The plates were then read in a PerkinElmer TopCount plate reader to measure the quantity of ^3H-labeled peptide bound to the Flashplate surface, measured as disintegrations per minute (dpm) or alternatively, referred to as counts per minute (cpm).
Where dpm=disintegrations per minute, cmpd=signal in assay well, and min and max are the respective minimum and maximum signal controls.
Where top and bottom are the normally allowed to float, but may be fixed at 100 or 0 respectively in a 3-parameter fit. The Hill Coefficient normally allowed to float but may also be fixed at 1 in a 3-parameter fit. I is the compound concentration.
SMYD2 biochemical assay data for representative Compounds of the Disclosure are presented in Tables 1-3 in the column titled “SMYD2 Biochem IC50 (μM).”

T1 sequence (Q9NRG4 whole entry): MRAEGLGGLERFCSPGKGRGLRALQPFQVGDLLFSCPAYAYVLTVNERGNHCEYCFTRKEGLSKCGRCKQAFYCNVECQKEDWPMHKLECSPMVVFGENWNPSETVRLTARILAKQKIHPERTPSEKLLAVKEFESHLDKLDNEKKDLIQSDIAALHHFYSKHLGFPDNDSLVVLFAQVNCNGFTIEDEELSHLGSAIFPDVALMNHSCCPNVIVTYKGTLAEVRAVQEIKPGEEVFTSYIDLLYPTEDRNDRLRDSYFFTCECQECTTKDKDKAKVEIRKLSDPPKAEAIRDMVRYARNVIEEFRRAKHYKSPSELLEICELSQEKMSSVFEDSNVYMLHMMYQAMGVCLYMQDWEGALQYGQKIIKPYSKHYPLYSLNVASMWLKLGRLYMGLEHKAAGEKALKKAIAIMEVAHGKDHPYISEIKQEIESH

Structure (SMILES)	IC50 [µM]
C[C@H]1CN(Cc2ccccc2)C[C@H]1NC(=O)c1cc(C2CC2)on1 (racemic) [compound 116, (±)-cis-N-([1-benzyl-4-methylpyrrolidin-3-yl)-5-cyclopropyl-1,2-oxazole-3-carboxamide]	4.2
C[C@@H]1CN(Cc2ccccc2)C[C@H]1NC(=O)c1cc(C2CC2)on1 (racemic) [compound 117, (±)-trans-N-(1-benzyl-4-methylpyrrolidin-3-yl)-5-cyclopropyl-1,2-oxazole-3-carboxamide]	> 50
C[C@H]1CN(Cc2cccnc2)C[C@H]1NC(=O)c1cc(C2CC2)on1 (racemic) [compound 120, (±)-cis-5-cyclopropyl-N-[4-methyl-1-(pyridin-3-ylmethyl)pyrrolidin-3-yl]-1,2-oxazole-3-carboxamide]	10.6
C[C@H]1CN(Cc2ccccn2)C[C@H]1NC(=O)c1cc(C2CC2)on1 (racemic) [compound 121, (±)-cis-5-cyclopropyl-N-[4-methyl-1-(pyridin-2-ylmethyl)pyrrolidin-3-yl]-1,2-oxazole-3-carboxamide]	15.7
CO[C@H]1CN(C)C[C@@H]1NC(=O)c1cc(C2CC2)on1 (racemic) [compound 122, (±)-trans-5-cyclopropyl-N-(4-methoxy-1-methylpyrrolidin-3-yl)-1,2-oxazole-3-carboxamide]	> 50
CO[C@H]1CN(C)C[C@H]1NC(=O)c1cc(C2CC2)on1 (racemic) [compound 123, (±)-cis-5-cyclopropyl-N-(4-methoxy-1-methylpyrrolidin-3-yl)-1,2-oxazole-3-carboxamide]	49.8
C[C@@H]1CN(Cc2cccnc2)C[C@H]1NC(=O)c1cc(C2CC2)on1 (racemic) [compound 124, (±)-trans-5-cyclopropyl-N-[4-methyl-1-(pyridin-3-ylmethyl)pyrrolidin-3-yl]-1,2-oxazole-3-carboxamide]	> 50
C[C@@H]1CN(Cc2ccccn2)C[C@H]1NC(=O)c1cc(C2CC2)on1 (racemic) [compound 125, (±)-trans-5-cyclopropyl-N-[4-methyl-1-(pyridin-2-ylmethyl)pyrrolidin-3-yl]-1,2-oxazole-3-carboxamide]	> 50
C[C@@H]1CN(CC2CC2)C[C@H]1NC(=O)c1cc(C2CC2)on1 (racemic) [compound 126, (±)-trans-5-cyclopropyl-N-[1-(cyclopropyl-methyl)-4-methyl-pyrrolidin-3-yl]-1,2-oxazole-3-carboxamide]	> 50
C[C@@H]1CN(CC2CCCOC2)C[C@H]1NC(=O)c1cc(C2CC2)on1 (mixture of isomers) [compound 127, (±)-trans-5-cyclopropyl-N-[4-methyl-1-(oxan-3-ylmethyl)pyrrolidin-3-yl]-1,2-oxazole-3-carboxamide]	> 50
C[C@@H]1CN(CC(C)(C)C)C[C@H]1NC(=O)c1cc(C2CC2)on1 (racemic) [compound 130, (±)-trans-5-cyclopropyl-N-[(3S,4R)-1-(2,2-dimethylpropyl)-4-methylpyrrolidin-3-yl]-1,2-oxazole-3-carboxamide]	> 50
CCc1nc(C)c(CN2C[C@@H](C)[C@H](NC(=O)c3cc(C4CC4)on3)C2)[nH]1 (racemic) [compound 131, (±)-trans-5-cyclopropyl-N-[1-[(2-ethyl-4-methyl-1H-imidazol-5-yl)methyl]-4-methyl-pyrrolidin-3-yl]-1,2-oxazole-3-carboxamide]	> 50
C[C@@H]1CN(CCC2CCN(C(=O)OC(C)(C)C)CC2)C[C@H]1NC(=O)c1cc(C2CC2)on1 (racemic) [compound 132]	> 50
C[C@@H]1CN(CCC2CCNCC2)C[C@H]1NC(=O)c1cc(C2CC2)on1 (racemic) [compound 133, (±)-trans-5-cyclopropyl-N-[4-methyl-1-[2-(piperidin-4-yl)ethyl]pyrrolidin-3-yl]-1,2-oxazole-3-carboxamide]	> 50
COc1ccc(CN2C[C@@H](C)[C@H](NC(=O)c3cc(C4CC4)on3)C2)c(OC)c1 (racemic) [compound 134, (±)-trans--cyclopropyl-N-[1-[(2,4-dimethoxy-phenyl)methyl]-4-methylpyrrolidin-3-yl]-1,2-oxazole-3-carboxamide]	> 50
C[C@@H]1CN(Cc2cccc3c2OCO3)C[C@H]1NC(=O)c1cc(C2CC2)on1 (racemic) [compound 135, (±)-trans-N-[1-(2H-1,3-benzodioxol-4-ylmethyl)-4-methyl-pyrrolidin-3-yl]-5-cyclopropyl-1,2-oxazole-3-carboxamide]	> 50
C[C@@H]1CN(Cc2ccc(Cl)cc2Cl)C[C@H]1NC(=O)c1cc(C2CC2)on1 (racemic) [compound 136, (±)-trans-5-cyclopropyl-N-[1-[(2,4-dichloro-phenyl)methyl]-4-methylpyrrolidin-3-yl]-1,2-oxazole-3-carboxamide]	> 50
C[C@@H]1CN(CC2CCOC2)C[C@H]1NC(=O)c1cc(C2CC2)on1 (mixture of isomers) [compound 137, (±)-trans-5-cyclopropyl-N-[4-methyl-1-(oxolan-3-ylmethyl)pyrrolidin-3-yl]-1,2-oxazole-3-carboxamide]	> 50
CC(C)N1C[C@H](NC(=O)c2cc(C3CC3)on2)[C@@H](C2CC2)C1 (racemic) [compound 138, (±)-trans-5-cyclopropyl-N-[4-cyclopropyl-1-(propan-2-yl)pyrrolidin-3-yl]-1,2-oxazole-3-carboxamide]	48.1
C[C@@H]1CN(Cc2ncc[nH]2)C[C@H]1NC(=O)c1cc(C2CC2)on1 (racemic) [compound 139, (±)-trans-5-cyclopropyl-N-[1-(1H-imidazol-2-ylmethyl)-4-methylpyrrolidin-3-yl]-1,2-oxazole-3-carboxamide]	> 50
C[C@@H]1CN(Cc2ccc(Cl)cc2)C[C@H]1NC(=O)c1cc(C2CC2)on1 (racemic) [compound 140, (±)-trans-N-{1-[(4-chlorophenyl)methyl]-4-methylpyrrolidin-3-yl]-5-cyclopropyl-1,2-oxazole-3-carboxamide]	> 50

Same assay, conditions: Table 1; average of n = 1 to n = 50; read-out: SMYD2 Biochem IC50

Structure (SMILES)	IC50 [µM]
CCc1cc(C(=O)N[C@@H]2CN(C3CC3)C[C@@H]2C)no1 (racemic) [compound 112, (±)-cis-N-(1-cyclopropyl-4-methylpyrrolidin-3-yl)-5-ethyl-isoxazole-3-carboxamide]	9.4

Same assay, conditions: Table 2; average of n = 1 to n = 50; read-out: SMYD2 Biochem IC50

Structure (SMILES)	IC50 [µM]
C[C@H]1CN(Cc2ccncc2)C[C@H]1NC(=O)c1cc(C2CC2)on1 (racemic) [compound 108, (±)-cis-5-cyclopropyl-N-(4-methyl-1-(pyridin-4-ylmethyl)pyrrolidin-3-yl)isoxazole-3-carboxamide]	22.6
C[C@H]1CN(Cc2ccccn2)C[C@H]1NC(=O)c1cc(C2CC2)on1 (racemic) [compound 109, (±)-cis-5-cyclopropyl-N-(4-methyl-1-(pyridin-2-ylmethyl)pyrrolidin-3-yl)isoxazole-3-carboxamide]	31.8
CCN1C[C@H](C)[C@H](NC(=O)c2cc(C3CC3)on2)C1 (racemic) [compound 110, (±)-cis-5-cyclopropyl-N-(1-ethyl-4-methylpyrrolidin-3-yl)isoxazole-3-carboxamide]	3
CC(=O)N1C[C@H](C)[C@H](NC(=O)c2cc(C3CC3)on2)C1 (racemic) [compound 111, (±)-cis-N-(1-acetyl-4-methylpyrrolidin-3-yl)-5-cyclopropylisoxazole-3-carboxamide]	> 50
